Assays:
AVEFA = test: greenhouse experiment, post-emergence treatment; assay type: in vivo, Avena fatua; details: post-emergence method, application rate 3.0 kg/ha, scale from 0 to 100
From the text: (§1) The seeds of the test plants were sown separately for each species. For the post-emergence treatment, the test plants were first grown to a height of 3 to 15 cm, depending on the plant habit, and then treated with the active compounds which had been suspended or emulsified in water. For this purpose, the test plants were either sown directly and grown in the same containers, or they were first grown separately as seedlings and transplanted into the test containers a few days prior to treatment. Depending on the species, the plants were kept at 10-25° C. or 20-35° C. The test period extended over 2 to 4 weeks. During this time, the plants were tended, and their response to the individual treatments was evaluated. Evaluation was carried out using a scale from 0 to 100. 100 means no emergence of the plants, or complete destruction of at least the aerial moieties, and 0 means no damage, or normal course of growth. A good herbicidal activity is given at values of at least 70 and a very good herbicidal activity is given at values of at least 85. [table]

ABUTH = test: greenhouse experiment, post-emergence treatment; assay type: in vivo, Abutilon theophrasti; details: post-emergence method, application rate 3.0 kg/ha, scale from 0 to 100
From the text: as §1

SETIT = test: greenhouse experiment, pre-emergence treatment; assay type: in vivo, Setaria italica; details: pre-emergence method, application rate 3.0 kg/ha, scale from 0 to 100
From the text: The seeds of the test plants were sown separately for each species. For the pre-emergence treatment, the active compounds, which had been suspended or emulsified in water, were applied directly after sowing by means of finely distributing nozzles. The containers were irrigated gently to promote germination and growth and subsequently covered with transparent plastic hoods until the plants had rooted. This cover caused uniform germination of the test plants, unless this has been impaired by the active compounds. Depending on the species, the plants were kept at 10-25° C. or 20-35° C. The test period extended over 2 to 4 weeks. During this time, the plants were tended, and their response to the individual treatments was evaluated. Evaluation was carried out using a scale from 0 to 100. 100 means no emergence of the plants, or complete destruction of at least the aerial moieties, and 0 means no damage, or normal course of growth. A good herbicidal activity is given at values of at least 70 and a very good herbicidal activity is given at values of at least 85. [table]

SETFA = test: greenhouse experiment, post-emergence treatment; assay type: in vivo, Setaria faberi; details: post-emergence method, application rate 3.0 kg/ha, scale from 0 to 100
From the text: as §1

## O=c1oc2nccnc2c(O)c1-c1ccccc1C(F)(F)F [example 1, 8-Hydroxy-7-(2-trifluoromethylphenyl)pyrano[2,3-b]pyrazin-6-one]
AVEFA
  herbicidal activity against AVEFA: good herbicidal activity (A good herbicidal activity is given at values of at least 70)
ABUTH
  herbicidal activity against ABUTH: good herbicidal activity (A good herbicidal activity is given at values of at least 70)
SETIT
  herbicidal activity against SETIT: very good herbicidal activity (a very good herbicidal activity is given at values of at least 85)
SETFA
  herbicidal activity against SETFA: good herbicidal activity (A good herbicidal activity is given at values of at least 70)
